Source: patent publication US6747013B2, “Therapy for cellular accumulation in chronic inflammatory diseases” (The Regents of the University of California, priority 1995, dated 2004)
Numbered stars: 1 amine (or outer) side, 2 acyl side, 3 side chain; on linkers, the order of the positions; unused ones are H or OH. Bridge positions count the residues as written; N and C are the ends. Square brackets hold non-standard residues; d marks the D form. Peptide text beside a SMILES is read from it. I, II: the chains in the order shown. Actinocin(9to1) = Cc1c2oc3c(C)ccc(C(=O)[*:1])c3nc-2c(C(=O)[*:2])c(N)c1=O; NMeV = CN[C@H](C(=O)O)C(C)C; Sar = CNCC(=O)O

B1: IFN-gamma: recombinant human IFN-gamma, cytokine purchased from Genzyme (protein, UniProt P01579 24-161, looked up)
Interferon gamma: QDPYVKEAENLKKYFNAGHSDVADNGTLFLGILKNWKEESDRKIMQSQIVSFYFKLFKNFKDDQSIQKSVETIKEDMNVKFFNSNKKKRDDFEKLTNYSVTDLNVQRKAIHELIQVMAELSPAAKTGKRKRSQMLFRG

What was measured:
p53 in RA FLS = settings: 8-9 hr after stimulating with H2O2 for 100 min; n=3; medium alone 10.7±2.4%
Experimental: (§1) The intracellular location of p53 protein is an important determinant of its functional capabilities. It is known that p53 can reside in the cytoplasm (generally bound to hsc70) but is transported to the nucleus after DNA damage or proliferative signals. […] Immunohistochemistry was then performed on cultured RA FLS to determine the subcellular localization of p53.

[1] = test system: p53 in dermal fibroblasts; settings: after exposure to H2O2; before 5±11%
Experimental: as §1

[2] = test system: fibroblast-like synoviocytes (FLS); assay: ISEL assay of apoptosis (DNA fragmentation) in cultured fibroblast-like synoviocytes; format: cell-based, human; settings: for % apoptotic cells Without IFN-gamma (100 U/ml) / % apoptotic cells With IFN-gamma: FLS incubated with mediator for 16 h, n = 3, ISEL assay; for % apoptotic cells Without IFN-gamma (100 U/ml): 'Without IFN-gamma (100 U/ml)' [sic]; for % apoptotic cells With IFN-gamma: concentrations: IL-1 1 ng/ml, TNF-alpha 100 ng/ml, act D 0.5 ug/ml, anti-fas 80 ng/ml; for DNA fragmentation in FLS (ISEL assay), in words: cultured FLS in chamber slides, agent alone; for effect of combination on FLS apoptosis, in words: in combination with other apoptosis-inducing factors
Experimental: Fragmented DNA was detected in cell nuclei using a modification of previously described methods (Wood et a., Neuron., 11:621-32, 1993 and Wijsman et al., J. Histochem. Cytochem. 41:7-12, 1993). Frozen section of synovial tissue (5-6 microns thick) were placed onto poly-L-lysine coated slides and air dried for at least 2 hours. The tissue sections were then fixed with EtOH/Acetic acid 3:1 for 10 min at room temperature and washed with buffer 1 (see below) for 5 min. The slides were then air dried 1 or at least 2 h. 10-15 ul of DNA polymerase mix were added to each section and incubated at room temperature for 1 h. The sections were washed with buffer 1 (see below) for 5 min at room temperature followed by a wash in buffer 2 for 5 min.
Alkaline phosphatase conjugated anti-digoxigenin antibody was diluted to 1:500 in buffer 2 and 15-20 ul was applied to each specimen. The slides were incubated at 37° C. for 2 hrs in a humidified chamber and then washed with buffer 1 for 5 min. They were then equilibrated with buffer 3 for 5 min and the color reagent (NBT+BCIP) was added to the specimens. After about 30 min the slides were washed with distilled water, counterstained with eosin or methyl green and dehydrated with graded alcohol washes. The developing reagent gave a dark purple color for positive signals. Buffers: 10× DNA polymerase buffer=0.5M Tris.Cl pH7.5, 0.1M MgCl2, 1 mM DTT; 10× nucleotide mix=1 mM each of dATP, dCTP and dGTP, 0.4 mM dTTP; DNA polymerase mix=10× DNA pol buffer (2 ul), […] nucleotide mix (2 ul); 100 uM dig-11-dUTP (0.5 ul), Klenow polymerase (2 ul (2 U)), Water (13.5 ul); Buffer 1=100 mM Tris.Cl pH7.5, 150 mM NaCl; Buffer 2=0.5% Blocking agent in buffer 1, Buffer 3=100 […]. Quantification of ISEL assay. A semiquantitative scale was used to estimate the degree of ISEL staining in tissue sections that had been counterstained with methyl green to distinguish ISEL-positive and -negative cells. Four areas were reviewed by a blinded investigator: the synovial intimal lining, the sublining, blood vessels, and lymphoid aggregates. The extent of staining in the area was estimated and scored as using a previously established semiquantitative scale.
Synovial cells were isolated by enzymatic dispersion of synovial tissues as previously described (Alvaro-Gracia, et al., supra). Briefly, the tissues were minced and incubated with 1 mg/ml collagenase in serum-free DMEM (Gibco, Grand Island, N.Y.) for 2 h at 37° C., filtered through a nylon mesh, extensively washed, and cultured in DMEM supplemented with 10% fetal calf serum (FCS) (Gibco, endotoxin content <0.006 ng/ml), penicillin, streptomycin, and L-glutamine in a humidified 5% Co2 atmosphere. After overnight culture, non-adherent cells were removed and adherent cells were cultivated in DMEM plus 10% FCS.
At confluence, cells were trypsinized, split at a 1:3 ratio, and recultured in medium. Synoviocytes were used from passages 3 through 9 in these experiments, during which time they were a homogeneous population of fibroblast-like synoviocytes (FLS)(<1% CD11b, <1% phagocytic, and <1% Fc-gamma RII receptor positive).
(§2) The presence of CD68-negative apoptotic cells in the synovial lining prompted an analysis of the regulation of FLS apoptosis in vitro. […] Osteoarthritis and rheumatoid arthritis-derived FLS were equally susceptible to induction of DNA strand breaks.

Rheumatoid arthritis FLS = assay: 3HdTr nuclear fragmentation assay; format: cell-based, human; settings: FIG. 8; cytokines or antibodies 8 h, act D 4 h
Experimental: Rheumatoid arthritis FLS were seeded at 10^4 cells/well in a 96-well microtiter plate. The cells were cultured at 37° C. and 5% CO2 for 2 days. On the third day, 10 uCi/ml/well of 3HdTR was added to each well and incubated overnight. The cells were then treated with different concentrations of cytokines or antibodies for 8 h or actinomycin D (act D) for 4 h and then lysed by 2 rounds of freeze-thaw cycles. Lysed cells and media were aspirated onto fiber glass filters using a cell harvester. The filters were washed to remove unincorporated nucleotides and counted in a liquid scintillation counter. All points were done in triplicates. Percent specific fragmentation was calculated as follows: (S-E)×100/S, where E=retained cpms on the filter in the presence of cytokine and S=retained cpms on the filter in the medium control (Matzinger, P., J. Immunological Methods 145:185-92, 1991).
as §2

Fas on FLS = assay: Surface Fas expression on FLS by flow cytometry (FACS); format: cell-based, human; settings: IL-1beta 1 ng/ml or TNF-alpha 100 ng/ml for 16 to 24 hours; pooled RA and OA FLS
Experimental: FLS (1-2×105) were cultured in 6-well plastic dishes (Costar, Cambridge, Mass.) in DMEM-10% FCS. Cells were harvested with 5 mM EDTA at 4° C. and stained with anti-fas or control antibody (Kamiya Biomedical Co., Thousand Oaks, Calif.) as previously described (Alvaro-Gracia, et al., supra). Phycoerythrin conjugated Fab2 anti-mouse IgG (Tago Inc. Burlingame, Calif.) was used as a secondary antibody. An isotype matched MAb was used as negative control. Induction of Fas expression by cytokines was calculated from the mean fluorescence channels (MFC) as follows: relative MFC=(MF(Ccytokine-MFClgG)/(MFCmedium-MFClgG). A cell was defined a positive if its MFC was greater than 98% of cells stained with the control antibody. Statistical analysis. Data were analyzed using the paired Student t test and are presented as mean+SEM.
Since anti-fas antibody induced DNA fragmentation in FLS, fas expression was determined on these cells using flow cytometry. Many FLS constitutively expressed Fas protein on the cell surface (see FIG. 9 for a representative experiment (n=7; 4 rheumatoid arthritis and 3 osteoarthritis)). There were no significant differences between osteoarthritis and rheumatoid arthritis FLS with regard to the level of surface Fas expression on resting synoviocytes. […]

mouse air pouch tissue = assay: Mouse air pouch model of inflammation with TUNEL staining; format: in vivo; settings: 3 ml of 1% carrageenan into pouch, two days after injection
Experimental: In this standard model, mice were lightly anesthetized with halothane and 3 ml of sterile filtered air was injected subcutaneously into the back, forming a pocket. This procedure was repeated twice over the next 5 days to form a mature pouch. Subsequently, 3 ml of 1% carrageenan was injected into the pouches. Carrageenan is a highly inflammatory natural substance that, when injected into body cavities, induces leukocyte recruitment, cytokine gene expression, and release of a variety of small molecule mediators. Two days after carrageenan injection, the mice were sacrificed and the pouches were removed. The excised pouches were fixed in formaldehyde and histologic sections were prepared. The sections were subsequently stained using the TUNEL technique (Wood, et al., Neuron, 11:621, 1993) to identify cells with fragmented DNA that were undergoing apoptosis.

| Molecule | % of FLS with prominent nuclear p53 staining (p53 in RA FLS) | % of dermal fibroblasts with nuclear p53 staining [1] | % apoptotic cells Without IFN-gamma (100 U/ml) [2] | % apoptotic cells With IFN-gamma [2] | DNA fragmentation in FLS (ISEL assay), in words [2] | DNA fragmentation in cultured FLS (3HdTr nuclear fragmentation), in words (Rheumatoid arthritis FLS) | surface Fas expression on FLS, in words (Fas on FLS) | TUNEL-positive cells in air pouch tissue, in words (mouse air pouch tissue) | inflammatory infiltration of the air pouch, in words (mouse air pouch tissue) | effect of combination on FLS apoptosis, in words [2] |
| --- | --- | --- | --- | --- | --- | --- | --- | --- | --- | --- |
| OO [hydrogen peroxide] | 70.7±12.8% | 75±17% |  |  |  |  |  |  |  |  |
| IL-1: Recombinant hIL-1 beta, cytokine purchased from Genzyme |  |  | 0 ± 2 % | 50 ± 2% | caused significant DNA fragmentation | caused DNA fragmentation | slight increase, the difference did not reach statistical significance |  |  |  |
| Cc1c2oc3c(C)ccc(C(=O)N[C@@H]4C(=O)N[C@H](C(C)C)C(=O)N5CCC[C@H]5C(=O)N(C)CC(=O)N(C)[C@@H](C(C)C)C(=O)O[C@@H]4C)c3nc-2c(C(=O)N[C@@H]2C(=O)N[C@H](C(C)C)C(=O)N3CCC[C@H]3C(=O)N(C)CC(=O)N(C)[C@@H](C(C)C)C(=O)O[C@@H]2C)c(N)c1=O [actinomycin D, reference compound] (I: T[dV]P[Sar][NMeV] / II: T[dV]P[Sar][NMeV]; ester I:1-I:C, II:1-II:C; linker I:N-II:N via Actinocin(9to1)) |  |  | 6 ± 3 % | 37 ± 5% | caused significant DNA fragmentation | caused DNA fragmentation |  |  |  |  |
| carrageenan |  |  |  |  |  |  |  | large foci of TUNEL-positive cells were present | an inflammatory exudate was present |  |
| TNF-alpha |  |  | 3 ± 2 % | 35 ± 1% | caused significant DNA fragmentation | caused DNA fragmentation | significantly increased surface Fas expression |  |  | additive with actinomycin D |
| B1 |  |  | 6 ± 2% |  | minimal effect |  |  |  |  | significantly reduced FLS apoptosis |
